IC50 and Minimum effective dose data for 13 compounds are collected here from patent US10155727B2, “Pyrazoles” (Janssen Pharmaceuticals, Inc., priority 2014, dated 2018).

Like-named read-outs stand apart in the source and are kept apart here.

Experiment [1] has as its target rat NR1/NR2B receptor (Rattus norvegicus (Rat), UniProt P35439+Q00960). Kind of experiment: NR2B binding assay: inhibition of specific [3H]-Ifenprodil binding to the rat NR1/NR2B receptor. The following applies: [3H]-Ifenprodil binding, rat brain membranes.
For experiment [2], the target named is human NR1/NR2B ion channels (Homo sapiens (Human), UniProt Q05586+Q13224). Kind of experiment: HNR2BC: calcium influx assay on cloned human NR1/NR2B ion channels expressed in HEK cells. The class given is cell-based. The following applies: HEK cells with hNR1/NR2B, 100 μM glutamate + 100 μM glycine, 3 parameter plot. On the procedure: HNR2BC: Effects of Test Articles on Cloned Human NR1/NR2B Ion Channels Expressed in Mammalian Cells
The ability of test compounds to act as an antagonist of NR1/NR2B was evaluated with a calcium influx assay (Calcium 5 Assay Kit, Molecular Devices).
For the antagonist assessment, NR1/NR2B was activated with the positive control agonist (Mg^2+-free HBPS+100 μM glutamic acid+100 μM glycine).
A HEK cell line, stable transfected with hNR1/NR2B was used. This tetracycline inducible cell line is transfected with GRIN1 (GeneBank accession number NM_007327.2) and GRIN2B (GeneBank accession number NM_000834.3.). The cells were cultured in cell culture flasks with DMEM/F12 supplemented with 10% FCS, 1% PenStrep and a selection of additional antibiotics.
Forty-Eight (48) hours before the assay the cells were plated into 96-well black well, flat clear bottom microtiter plates at a density of 50000 cells/well. Twenty-Four (24) hours later the receptor expression was induced by the addition of 1 μg/ml tetracycline in the presence of 2 mM ketamine and 200 μM 7-CKA. After 24 h of receptor induction the plates were used for the assay.
The medium was removed and the cells were loaded with 200 μl loading buffer (Molecular Devices) in Mg2+-free HBPS containing 100 μM 7-CKA at 37° C. for one (1) hour.
The test compounds were then solubilized in 100% DMSO and diluted to yield eight (8) different concentrations in 100% DMSO. A 96 well drug plate was prepared by diluting with water and glycine/glutamate to a 5-fold of final test concentration. Fluorescence intensity of the cells in the plate was measured in a FlexStation using an excitation wavelength of 485 nm and an emission wavelength of 525 nm. Twenty (20) seconds after starting the recordings the compounds together with the agonists glycine (100 μM) and glutamate (100 μM) were added into the wells and the fluorescence measured for ninety (90) seconds in summary.
The IC50 values provided in the paragraph below were determined using a 3 parameter plot.

Experiment [3] concerns the target hERG receptor (Homo sapiens (Human), UniProt Q12809). Nature of the experiment: HERGBD: inhibition of specific [3H]-Dofetilide binding to the hERG receptor.
Experiment [4] relates to mice. Kind of experiment: Forced swim test in mice. The following applies: p.o. 30 minutes before the test, male NMRI mice. The class given is in vivo. On the procedure:
The compounds of the invention show significant antidepressive effects in the forced swim test in mice, an animal model of depression at doses of 100 mg/kg or below.
The method, which detects antidepressant activity, follows that described by Porsolt et al (Arch. Int. Pharmacodyn., 229, 327-336, 1977), which is incorporated by reference herein in its entirety.
Mice forced to swim in a situation from which they cannot escape rapidly become immobile. Antidepressants decrease the duration of immobility.
Male NMRI mice (Janvier, France), weighing 20-30 g, were individually placed in a cylinder (height=24 cm; diameter=13 cm) containing 10 cm water (22° C.) from which they cannot escape.
The mice were placed in the water for 6 minutes and the duration of immobility during the last 4 minutes was measured. The latency to the first bout of immobility was also recorded starting from the beginning of the test. 10 mice were studied per group. The test substance was administered p.o. 30 minutes before the test and compared with vehicle control group. The test was performed blind.

Chain of rat NR1/NR2B receptor (Q00960 27-1482, other chains not shown): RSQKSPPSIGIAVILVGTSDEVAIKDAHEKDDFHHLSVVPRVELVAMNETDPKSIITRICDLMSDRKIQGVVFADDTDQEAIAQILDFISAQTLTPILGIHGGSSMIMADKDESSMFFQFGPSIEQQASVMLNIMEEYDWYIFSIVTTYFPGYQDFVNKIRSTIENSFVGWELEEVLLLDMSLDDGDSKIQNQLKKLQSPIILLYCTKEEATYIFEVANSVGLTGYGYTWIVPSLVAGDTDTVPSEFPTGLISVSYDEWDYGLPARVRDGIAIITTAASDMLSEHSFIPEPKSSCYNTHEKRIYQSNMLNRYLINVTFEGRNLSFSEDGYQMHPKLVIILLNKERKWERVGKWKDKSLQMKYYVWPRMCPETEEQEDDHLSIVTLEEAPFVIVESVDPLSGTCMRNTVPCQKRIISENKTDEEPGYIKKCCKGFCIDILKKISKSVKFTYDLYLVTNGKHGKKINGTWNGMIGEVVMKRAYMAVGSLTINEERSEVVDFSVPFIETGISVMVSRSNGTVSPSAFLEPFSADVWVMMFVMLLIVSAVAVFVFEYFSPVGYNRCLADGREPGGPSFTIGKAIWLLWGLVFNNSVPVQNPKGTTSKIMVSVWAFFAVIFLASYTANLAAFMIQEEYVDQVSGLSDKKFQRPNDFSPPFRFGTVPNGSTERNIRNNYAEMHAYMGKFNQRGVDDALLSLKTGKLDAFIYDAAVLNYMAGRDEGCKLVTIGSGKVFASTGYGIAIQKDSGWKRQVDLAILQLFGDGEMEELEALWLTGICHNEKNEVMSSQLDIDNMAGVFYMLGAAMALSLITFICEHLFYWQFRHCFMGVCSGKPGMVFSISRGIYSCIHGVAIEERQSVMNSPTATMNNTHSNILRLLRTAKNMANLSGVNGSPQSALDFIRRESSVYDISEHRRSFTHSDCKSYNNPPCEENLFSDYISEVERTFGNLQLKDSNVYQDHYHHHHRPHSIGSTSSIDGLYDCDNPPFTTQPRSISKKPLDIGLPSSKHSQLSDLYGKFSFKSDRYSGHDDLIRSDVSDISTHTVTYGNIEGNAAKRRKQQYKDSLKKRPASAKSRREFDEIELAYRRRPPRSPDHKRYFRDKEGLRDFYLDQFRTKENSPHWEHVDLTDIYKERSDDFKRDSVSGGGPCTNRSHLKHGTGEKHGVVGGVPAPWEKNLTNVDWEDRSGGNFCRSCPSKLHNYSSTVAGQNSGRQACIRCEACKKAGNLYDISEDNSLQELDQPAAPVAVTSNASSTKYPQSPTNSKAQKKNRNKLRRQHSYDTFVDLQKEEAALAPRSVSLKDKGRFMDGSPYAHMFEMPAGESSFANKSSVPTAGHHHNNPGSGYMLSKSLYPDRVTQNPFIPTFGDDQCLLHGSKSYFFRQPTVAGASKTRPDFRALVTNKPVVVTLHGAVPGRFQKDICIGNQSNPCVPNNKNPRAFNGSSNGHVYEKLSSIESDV
Chain of human NR1/NR2B ion channels (Q13224 27-1484, other chains not shown): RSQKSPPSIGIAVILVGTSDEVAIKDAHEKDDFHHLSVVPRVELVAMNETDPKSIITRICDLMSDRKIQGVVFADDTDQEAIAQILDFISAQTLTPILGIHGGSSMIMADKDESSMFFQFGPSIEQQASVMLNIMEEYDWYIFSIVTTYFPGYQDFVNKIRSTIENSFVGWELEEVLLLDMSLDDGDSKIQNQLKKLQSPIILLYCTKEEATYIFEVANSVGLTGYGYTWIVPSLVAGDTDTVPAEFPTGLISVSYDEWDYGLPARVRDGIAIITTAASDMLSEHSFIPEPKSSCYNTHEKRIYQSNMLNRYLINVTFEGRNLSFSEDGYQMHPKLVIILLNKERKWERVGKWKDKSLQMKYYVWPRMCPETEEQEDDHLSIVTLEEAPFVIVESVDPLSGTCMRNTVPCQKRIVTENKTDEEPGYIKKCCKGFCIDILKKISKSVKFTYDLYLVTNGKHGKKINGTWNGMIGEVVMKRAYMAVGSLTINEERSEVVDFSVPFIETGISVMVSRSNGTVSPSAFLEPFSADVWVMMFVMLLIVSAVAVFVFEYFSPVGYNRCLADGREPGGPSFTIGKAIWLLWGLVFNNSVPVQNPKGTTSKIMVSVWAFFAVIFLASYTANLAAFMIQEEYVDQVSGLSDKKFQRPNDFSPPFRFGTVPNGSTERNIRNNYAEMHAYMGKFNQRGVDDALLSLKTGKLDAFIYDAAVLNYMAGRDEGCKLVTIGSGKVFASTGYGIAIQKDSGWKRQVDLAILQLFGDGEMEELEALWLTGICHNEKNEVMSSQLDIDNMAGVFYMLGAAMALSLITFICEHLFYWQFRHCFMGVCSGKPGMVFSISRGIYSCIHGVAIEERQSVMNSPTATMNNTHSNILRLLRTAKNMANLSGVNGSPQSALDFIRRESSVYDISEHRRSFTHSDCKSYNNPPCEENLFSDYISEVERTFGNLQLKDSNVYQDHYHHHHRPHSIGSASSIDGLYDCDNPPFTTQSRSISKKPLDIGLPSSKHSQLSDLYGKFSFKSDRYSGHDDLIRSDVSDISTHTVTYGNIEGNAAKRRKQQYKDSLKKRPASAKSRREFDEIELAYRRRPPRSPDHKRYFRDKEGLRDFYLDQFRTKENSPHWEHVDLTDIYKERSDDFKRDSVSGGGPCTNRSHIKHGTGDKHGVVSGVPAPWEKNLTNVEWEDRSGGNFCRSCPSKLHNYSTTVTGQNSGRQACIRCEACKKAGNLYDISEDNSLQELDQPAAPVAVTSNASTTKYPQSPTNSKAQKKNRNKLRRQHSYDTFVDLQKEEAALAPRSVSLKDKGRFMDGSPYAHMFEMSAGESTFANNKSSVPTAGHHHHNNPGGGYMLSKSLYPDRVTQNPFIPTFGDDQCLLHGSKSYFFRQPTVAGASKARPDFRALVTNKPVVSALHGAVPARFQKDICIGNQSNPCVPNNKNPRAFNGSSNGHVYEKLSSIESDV
Chain of hERG receptor (Q12809 whole entry): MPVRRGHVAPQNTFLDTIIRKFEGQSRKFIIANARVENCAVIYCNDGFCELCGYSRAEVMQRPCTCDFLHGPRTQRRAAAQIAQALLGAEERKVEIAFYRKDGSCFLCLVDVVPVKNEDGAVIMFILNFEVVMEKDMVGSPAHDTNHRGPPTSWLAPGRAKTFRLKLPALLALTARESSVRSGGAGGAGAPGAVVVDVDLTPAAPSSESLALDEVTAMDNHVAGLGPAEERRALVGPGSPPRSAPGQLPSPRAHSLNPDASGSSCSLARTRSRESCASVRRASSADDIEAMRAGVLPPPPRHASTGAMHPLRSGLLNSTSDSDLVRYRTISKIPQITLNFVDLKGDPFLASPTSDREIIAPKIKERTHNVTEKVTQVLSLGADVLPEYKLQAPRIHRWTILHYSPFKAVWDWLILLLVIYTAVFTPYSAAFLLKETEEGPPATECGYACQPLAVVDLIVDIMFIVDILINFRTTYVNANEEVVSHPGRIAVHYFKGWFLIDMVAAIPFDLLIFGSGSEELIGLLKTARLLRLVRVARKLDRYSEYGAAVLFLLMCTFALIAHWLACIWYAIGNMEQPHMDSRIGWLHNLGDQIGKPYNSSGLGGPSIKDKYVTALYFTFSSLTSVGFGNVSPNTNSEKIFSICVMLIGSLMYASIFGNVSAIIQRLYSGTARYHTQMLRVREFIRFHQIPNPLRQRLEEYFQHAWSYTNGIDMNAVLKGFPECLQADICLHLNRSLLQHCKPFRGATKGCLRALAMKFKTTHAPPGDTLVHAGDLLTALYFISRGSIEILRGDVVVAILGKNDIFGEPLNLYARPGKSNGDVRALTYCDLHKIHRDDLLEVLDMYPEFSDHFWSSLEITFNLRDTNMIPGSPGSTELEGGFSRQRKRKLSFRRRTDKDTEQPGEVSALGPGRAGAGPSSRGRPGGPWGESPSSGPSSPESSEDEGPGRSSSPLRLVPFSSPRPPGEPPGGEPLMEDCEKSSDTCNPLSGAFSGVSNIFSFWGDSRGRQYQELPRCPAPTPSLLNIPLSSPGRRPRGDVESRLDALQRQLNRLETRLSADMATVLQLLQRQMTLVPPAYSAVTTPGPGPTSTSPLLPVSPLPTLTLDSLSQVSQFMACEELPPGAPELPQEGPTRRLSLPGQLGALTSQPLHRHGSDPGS

As to `Cn1ccc(Cn2cc(-c3ccc(Cl)cc3)cn2)n1` [Example 75, 3-[[4-(4-Chlorophenyl)pyrazol-1-yl]methyl]-1-methyl-pyrazole], the IC50 (as a rule, the concentration that gives 50% inhibition) in experiment [1] amounted to 3040 nM; in experiment [2], 33800 nM; in experiment [3] it was 131000 nM.
For `CCc1[nH]ncc1Cn1cc(-c2ccc(F)c(C(F)F)c2)cn1` [Example 43, 4-[3-(Difluoromethyl)-4-fluoro-phenyl]-1-[(5-ethyl-1H-pyrazol-4-yl)methyl]pyrazole] the same measures were 134 nM, 2660 nM and 57400 nM.
As for `Cc1[nH]ncc1Cn1cc(-c2ccc(Cl)c(OC(F)F)c2)cn1` [Example 16, 4-[4-Chloro-3-(difluoromethoxy)phenyl]-1-[(5-methyl-1H-pyrazol-4-yl)methyl]pyrazole], the IC50 in experiment [1] was determined as 41.1 nM; in experiment [2], 2150 nM; in experiment [3] it was 64700 nM.
As for `CCc1cc(Cn2cc(-c3ccc(Cl)c(OC(F)F)c3)cn2)n[nH]1` [Example 14, 3-[[4-[4-Chloro-3-(difluoromethoxy)phenyl]pyrazol-1-yl]methyl]-5-ethyl-1H-pyrazole], the IC50 is 76.2 nM in experiment [1]; more than 10000 nM in experiment [2]; 16100 nM in experiment [3] ([3H]-Dofetilide binding, membranes of HEK cells with human ERG receptor, read-out: IC50).
For the compound `Cc1n[nH]c(C)c1Cn1cc(-c2ccc(Cl)c(OC(F)F)c2)cn1` [Example 88, 4-[[4-(3-difluoromethoxy-4-chloro-phenyl)pyrazol-1-yl]methyl]-3,5-dimethyl-1H-pyrazole], the figures for the IC50 in experiment [1], in experiment [2] and in experiment [3] were 152 nM, more than 10000 nM and 43200 nM, respectively.
For `CCCc1cc(Cn2cc(-c3ccc(F)c(C(F)F)c3)cn2)n[nH]1` [Example 41, 3-[[4-[3-(Difluoromethyl)-4-fluoro-phenyl]pyrazol-1-yl]methyl]-5-propyl-1H-pyrazole] the same measures were 114 nM, 59700 nM and 16000 nM.
Turning to `Cn1ccc(Cn2cc(-c3ccc(Cl)c(OC(F)F)c3)cn2)n1` [Example 2, 3-[[4-[4-Chloro-3-(difluoromethoxy)phenyl]pyrazol-1-yl]methyl]-1-methyl-pyrazole], the IC50 in experiment [2] is 2460 nM. Also, the Minimum effective dose in experiment [4] is 30 mg/kg.
`Cc1[nH]ncc1Cn1cc(-c2ccc(F)c(C(F)F)c2)cn1` [Example 42, 4-[3-(Difluoromethyl)-4-fluoro-phenyl]-1-[(5-methyl-1H-pyrazol-4-yl)methyl]pyrazole]: the IC50 was found to be 202 nM in experiment [1], 2300 nM in experiment [2] and 71600 nM in experiment [3].
Take `Cc1cc(Cn2cc(-c3ccc(F)c(C(F)F)c3)cn2)[nH]n1` [Example 39, 4-[3-(Difluoromethyl)-4-fluoro-phenyl]-1-[(3-methyl-1H-pyrazol-5-yl)methyl]pyrazole]: the figures for the IC50 in experiment [1], in experiment [2] and in experiment [3] were 102 nM, 2400 nM and 90200 nM, respectively.
In the same order, the values of `Cn1ccc(Cn2cc(-c3ccc(F)c(C(F)F)c3)cn2)n1` [Example 31, 3-[[4-[3-(difluoromethyl)-4-fluoro-phenyl]pyrazol-1-yl]methyl]-1-methyl-pyrazole Succinate] are 264 nM, 7770 nM and 19700 nM.
In the same order, the values of `FC(F)Oc1cc(-c2cnn(Cc3cn[nH]c3)c2)ccc1Cl` [Example 7, 4-[4-Chloro-3-(difluoromethoxy)phenyl]-1-(1H-pyrazol-4-ylmethyl)pyrazole] are 8.23 nM, 350 nM and 52600 nM.
In the case of `Fc1ccc(-c2cnn(Cc3cc[nH]n3)c2)cc1OC(F)F` [Example 18, 4-[3-(difluoromethoxy)-4-fluoro-phenyl]-1-(1H-pyrazol-3-ylmethyl) pyrazole], the IC50 in experiment [2] was determined as 370 nM. In experiment [4], this compound returned a Minimum effective dose of 10 mg/kg.
For the compound `CC(F)(F)c1cc(-c2cnn(Cc3cc[nH]n3)c2)ccc1F` [Example 44, 4-[3-(1,1-difluoroethyl)-4-fluoro-phenyl]-1-(1H-pyrazol-3-ylmethyl)pyrazole Succinate], the IC50 was 17.1 nM in experiment [1], 530 nM in experiment [2] and more than 100000 nM in experiment [3].
